Data from patent US12171763B2, “Methods and compositions comprising a KRASG12C inhibitor and a PD-L1 binding antagonist for treating lung cancer” (Genentech, Inc., priority 2020, dated 2024).
Counter-ions that a name gives are not always drawn.

Key:
[1] = test system: KRAS^G12C-positive lung tumors; experiment: Nonclinical xenograft models of KRAS G12C-positive lung tumors; format: in vivo
[2] = test system: KRAS^G12C-positive over KRAS^G12C-negative cancer cell lines; experiment: Growth inhibition of KRAS G12C-positive versus KRAS G12C-negative cancer cell lines; format: cell-based
[3] = test system: KRAS^G12C-positive cancer cell lines; experiment: Mechanism of action studies in KRAS G12C-positive cancer cell lines; format: cell-based
[4] = Risks associated with administration of Compound 1; settings: in vivo
[5] = test system: CT26.KRAS12C-Clone #12:B2G9 Syngeneic Colorectal (CRC) Tumors; experiment: Anti-tumor efficacy in CT26.KRAS12C-Clone #12:B2G9 syngeneic colorectal (CRC) tumor model; format: in vivo, Balb/c mice
Method: The combination of the adipate salt of Compound 1 with anti-PD-L1 monoclonal antibody (mAb) was assessed in the CRISPR-engineered CT26.KRAS12C-Clone #12:B2G9 mouse colorectal (CRC) syngeneic tumor model.
Test Agents. The adipate salt of Compound 1 was in a solution at a concentration of 7.5 mg/mL in 0.5% (w/v) methylcellulose. Anti-PD-L1 mAbs (Mu IgG1 anti-PD-L1 (6E11); hereafter referred to as anti-PD-L1) was in a solution in Histidine Buffer #8 ([…] Histidine Acetate, […] Sucrose, 0.02% Tween 20™, pH 5.5). The oral-dosed vehicle control was 0.5% (w/v) methylcellulose. Test agents were stored in a refrigerator set to maintain a temperature range of 4° C.-7° C. All treatments and vehicle control dosing solutions were prepared once a week for three weeks.
Female Balb/c mice that were 9-10 weeks old were obtained from Charles River Laboratory (Hollister, CA) weighing an average of 22 g. Only animals that appeared to be healthy and that were free of obvious abnormalities were used for the study. Mus musculus colon carcinoma CT26 cells were obtained from the American Type Culture Collection (Rockville, MD). CT26.KRAS12C-Clone #12:B2G9 is derived from CRISPR knock-in of G12C in CT26 cells. Cells were cultured in vitro, harvested in log-phase growth, and resuspended in Hank's Balanced Salt Solution (HBSS) containing Matrigel (BD Biosciences; San Jose, CA) at a 1:1 ratio. The cells were then implanted subcutaneously in the right lateral thorax of 70 Balb/c mice. Each mouse was injected with 0.1×10^6 cells in a volume of 100 μL. Tumors were monitored until they reached a mean tumor volume of 159-228 mm^3. Mice were distributed into six groups based on tumor volumes with n=8 mice per group. The mean tumor volume across all six groups was 198 mm^3 at the initiation of dosing.
[…] The MC vehicle and adipate salt of Compound 1 were administered on QD orally (PO) by gavage for 21 days in a volume of 100 μL. The isotope control mAbs and anti-PD-L1 mAbs were administered intravenously (IV) at 10 mg/kg for the first dose, and then dosed intraperitoneally (IP) at 5 mg/kg for subsequent doses on a twice weekly (BIW) schedule.
Tumor sizes and mouse body weights were recorded twice weekly over the course of the study. […]
Dose Preparation and Tumor and Body Weight Measurement. All concentrations were calculated based on a mean body weight of 25 g for the […] mouse strain used in this study. Tumor volumes were measured in two dimensions (length and width) using Ultra Cal-IV calipers (model 54-10-111; Fred V. Fowler Co.; Newton, MA) and analyzed using Excel, version 14.2.5 (Microsoft Corporation; Redmond WA). The tumor volume was calculated with the following formula: Tumor size(mm^3)=(longer measurement×shorter measurement^2)×0.5 […]

NSCLC = settings: patients in clinical studies, cited from earlier work

## C=CC(=O)N1CCN(c2nc(OC[C@@H]3CCCN3C)nc3c(F)c(-c4nc(N)cc(C)c4C(F)(F)F)c(Cl)cc23)[C@@H](C)C1 (atropisomer, axis not shown) [Compound 1, 1-((S)-4-((R)-7-(6-amino-4-methyl-3-(trifluoromethyl)pyridin-2-yl)-6-chloro-8-fluoro-2-(((S)-1-methylpyrrolidin-2-yl)methoxy)quinazolin-4-yl)-3-methylpiperazin-1-yl)prop-2-en-1-one]
[1]
  single-agent activity on tumor growth: inhibits tumor growth
[2]
  selectivity in growth inhibition: over 20,000 fold
[3]
  apoptosis induction: apoptosis induction is observed
  downstream MAPK pathway components (pERK, pS6) and KRAS target genes (DUSP6, SPRY4): inhibited
[4]
  risks associated with administration: diarrhea, nausea, vomiting, oral mucosal irritation, minimal to mild transaminase elevation, and phototoxicity

## C=CC(=O)N1CCN(c2nc(OC[C@@H]3CCCN3C)nc3c(F)c(-c4nc(N)cc(C)c4C(F)(F)F)c(Cl)cc23)[C@@H](C)C1 (atropisomer, axis not shown) [adipate salt Compound 1, 1-((S)-4-((R)-7-(6-amino-4-methyl-3-(trifluoromethyl)pyridin-2-yl)-6-chloro-8-fluoro-2-(((S)-1-methylpyrrolidin-2-yl)methoxy)quinazolin-4-yl)-3-methylpiperazin-1-yl)prop-2-en-1-one]
[5]; fraction of mice, Compound 1 adipate 30 mg/kg PO QD, anti-PD-L1 10/5 mg/kg BIW
  partial responses (PRs): ⅜
[5]; number of mice of 8, CR = 100% decrease in tumor volume, Compound 1 adipate 30 mg/kg, anti-PD-L1 10/5 mg/kg
  CR (complete response): 0
[5]; number of mice of 8, PR = >50% decrease from initial tumor volume, Compound 1 adipate 30 mg/kg, anti-PD-L1 10/5 mg/kg
  PR (partial response): 3
[5]; tumor growth inhibition based on AUC, relative to vehicle, Compound 1 adipate 30 mg/kg PO QD, anti-PD-L1 10 mg/kg IV first dose then 5 mg/kg IP BIW
  % TGI (estimated): 123%

## C=CC(=O)N1CCN(c2nc(=O)n(-c3c(C)ccnc3C(C)C)c3nc(-c4c(O)cccc4F)c(F)cc23)[C@@H](C)C1 [AMG 510, sotorasib]
NSCLC; overall
  treatment-related adverse events: 56.6 % of patients
NSCLC
  Grade 3 events occurring in more than one patient: ALT increase, diarrhea, anemia, AST increase, and alkaline phosphatase increase
  treatment-related Grade 3 or 4 event: 11.6 % of patients
  treatment-related serious adverse event: 1.6 % of patients
